{"source": "patent US20140228440A1", "about": "“1-AMINO-ALKYLCYCLOHEXANE DERIVATIVES FOR THE TREATMENT OF INFLAMMATORY SKIN DISEASES” (MERZ PHARMA GmbH & CO. KGaA, priority 2008, published 2014)", "assay_in_all_cases": "MIC and MBC by the agar dilution method", "type_in_all_cases": "cell-based", "details_in_all_cases": "pH 5.5", "key": {"[1]": {"test_system": "Propionibacterium acnes ATCC 11828", "procedure": "(§1) To assess the anti-microbial potency of Neramexane against acne relevant bacterias the minimal inhibitory concentration (MIC) and minimal bactericidal concentration (MBC) against the following bacterias is established: The MICs of the samples are determined using the agar dilution method based on DIN 58940. Petri dishes of 5.5 cm diameter are poured with 2.5 ml of freshly prepared Mueller-Hinton agar (Merck company, Cat-No 1.05437) or Wilkins-Chalgren-Agar (Oxoid company, Cat-No CM643), maintained in liquid form at 50° C., to which the sample dilutions at various concentrations have been added at 50.0 vol.-%. To prepare the starting sample dilutions, a 12.5%, 3.12% suspension of the respective sample solution is prepared with Aqua purificata. From these stock-solutions, further dilutions are prepared with Aqua purificata. All test compounds are adjusted to pH 5.5. For test product no. 1, separate dilutions adjusted to pH 6.0 and pH 7.4 are also prepared. For inoculation, 1 μl of the respective germ suspension is placed on the centre of each agar plate. After drying, inoculated plates are incubated at 36.0±2.0° C. The basis for the length of incubation period is the respective growth control cultivated in parallel. The test microbe suspension is prepared by inoculating a few individual colonies of the respective bacteria into sterile saline solution until a turbidity corresponding to the McFarland standard 1.0 (approximately 10^8 cfu/ml) is reached. After that, the test microbe suspensions are further diluted 1:10 with saline solution and the microbial counts (see Table 21) are determined by the surface spread method using a spiral plater. The agar plates are incubated under the conditions given in Table 22 and subsequently evaluated. The MIC-values as given represent the lowest concentration of the active substance at which there is no macroscopically visible growth. Minimal, barely visible growth or few small individual colonies are evaluated as inhibition. [table] All negative tests of the determination of the minimal bactericial concentration are the basis of verification of remaining germs, the inoculated agar segments are cut and put in Mueller-Hinton-Bouillon (germ 1) or Wilkins-Chalgren-Bouillon (germs 2-4). After an adequate incubation period at 36.0±2.0° C. (as judged from a control without test compound), the tests are checked manually on microbial growth (=turbidity) and the minimal bactericidal concentration is determined. MBC indicates the concentration without marked turbidity. Grown germs are checked for identity to rule out unspecific contaminations. The following results are summarized and tabulated: • a) Results of the Minimal Inhibitory Concentration (MIC)* • b) Results of the Minimal Bactericidal Concentration (MBC) *The MIC is the concentration without macroscopical growth. Scarcely apparent, minimum growth or few single colonies are not considered. The controls must have a respectively good developed growth. There must be no growth on the agar plates for the sterile control. The growth of bacteria is indicated for the duplicate plates by a +(i.e., growth) or a −(i.e., no growth), +− indicates weak growth on both plates or growth on one plate and no growth on the other plate. All bacteria show appropriate growth on the respective control plate not containing any test compound. No influence of the used diluent (Aqua purifacata) was observed. No contamination is observed on the control-plates."}, "[2]": {"test_system": "Propionibacterium avidum ATCC 25577", "procedure": "as §1"}, "[3]": {"test_system": "Propionibacterium granulosum ATCC 11829", "procedure": "as §1"}, "[4]": {"test_system": "Staphylococcus epidermidis ATCC 12228", "procedure": "as §1"}, "[5]": {"details": "final concentration 0.002 % (Neramexane-HCl)"}, "[6]": {"details": "final concentration 0.005 % (Neramexane-HCl)"}, "[7]": {"details": "final concentration 0.01 % (Neramexane-HCl)"}, "[8]": {"details": "final concentration 0.02 % (Neramexane-HCl)"}, "[9]": {"details": "final concentration 0.04 % (Neramexane-HCl)"}, "[10]": {"details": "final concentration 0.08 % (Neramexane-HCl)"}, "[11]": {"details": "final concentration 0.16 % (Neramexane-HCl)"}, "[12]": {"details": "final concentration 0.31 % (Neramexane-HCl)"}, "[13]": {"details": "final concentration 0.63 % (Neramexane-HCl)"}, "[14]": {"details": "final concentration 1.56 % (Neramexane-HCl)"}}, "data": [{"smiles": "CC1(C)CC(C)(C)CC(C)(N)C1.Cl", "note": "[Neramexane-HCl]", "values": [{"measurement": "growth of bacteria on duplicate plates (MIC determination)", "setting": "[1]; [5]", "value": "+ +"}, {"measurement": "growth of bacteria on duplicate plates (MIC determination)", "setting": "[1]; [6]", "value": "+ +"}, {"measurement": "growth of bacteria on duplicate plates (MIC determination)", "setting": "[1]; [7]", "value": "+ +"}, {"measurement": "growth of bacteria on duplicate plates (MIC determination)", "setting": "[1]; [8]", "value": "+ +"}, {"measurement": "growth of bacteria on duplicate plates (MIC determination)", "setting": "[1]; [9]", "value": "+ +"}, {"measurement": "growth of bacteria on duplicate plates (MIC determination)", "setting": "[1]; [10]", "value": "+ +"}, {"measurement": "growth of bacteria (MBC determination)", "setting": "[1]; [11]", "value": "+ +"}, {"measurement": "growth of bacteria on duplicate plates (MIC determination)", "setting": "[1]; [11]", "value": "− −"}, {"measurement": "growth of bacteria (MBC determination)", "setting": "[1]; [12]", "value": "+ +"}, {"measurement": "growth of bacteria on duplicate plates (MIC determination)", "setting": "[1]; [12]", "value": "− −"}, {"measurement": "growth of bacteria (MBC determination)", "setting": "[1]; [13]", "value": "+ +"}, {"measurement": "growth of bacteria on duplicate plates (MIC determination)", "setting": "[1]; [13]", "value": "− −"}, {"measurement": "growth of bacteria (MBC determination)", "setting": "[1]; [14]", "value": "− −"}, {"measurement": "growth of bacteria on duplicate plates (MIC determination)", "setting": "[1]; [14]", "value": "− −"}, {"measurement": "MBC", "setting": "[1]", "value": 1.56, "unit": "%"}, {"measurement": "MIC", "setting": "[1]", "value": 0.16, "unit": "%"}, {"measurement": "growth of bacteria on duplicate plates (MIC determination)", "setting": "[2]; [5]", "value": "+ +"}, {"measurement": "growth of bacteria on duplicate plates (MIC determination)", "setting": "[2]; [6]", "value": "+ +"}, {"measurement": "growth of bacteria on duplicate plates (MIC determination)", "setting": "[2]; [7]", "value": "+ +"}, {"measurement": "growth of bacteria on duplicate plates (MIC determination)", "setting": "[2]; [8]", "value": "+ +"}, {"measurement": "growth of bacteria on duplicate plates (MIC determination)", "setting": "[2]; [9]", "value": "+ +"}, {"measurement": "growth of bacteria on duplicate plates (MIC determination)", "setting": "[2]; [10]", "value": "+ −"}, {"measurement": "growth of bacteria (MBC determination)", "setting": "[2]; [11]", "value": "+ +"}, {"measurement": "growth of bacteria on duplicate plates (MIC determination)", "setting": "[2]; [11]", "value": "− −"}, {"measurement": "growth of bacteria (MBC determination)", "setting": "[2]; [12]", "value": "+ +"}, {"measurement": "growth of bacteria on duplicate plates (MIC determination)", "setting": "[2]; [12]", "value": "− −"}, {"measurement": "growth of bacteria (MBC determination)", "setting": "[2]; [13]", "value": "+ +"}, {"measurement": "growth of bacteria on duplicate plates (MIC determination)", "setting": "[2]; [13]", "value": "− −"}, {"measurement": "growth of bacteria (MBC determination)", "setting": "[2]; [14]", "value": "− −"}, {"measurement": "growth of bacteria on duplicate plates (MIC determination)", "setting": "[2]; [14]", "value": "− −"}, {"measurement": "MBC", "setting": "[2]", "value": 1.56, "unit": "%"}, {"measurement": "MIC", "setting": "[2]", "value": 0.16, "unit": "%"}, {"measurement": "growth of bacteria on duplicate plates (MIC determination)", "setting": "[3]; [5]", "value": "+ +"}, {"measurement": "growth of bacteria on duplicate plates (MIC determination)", "setting": "[3]; [6]", "value": "+ +"}, {"measurement": "growth of bacteria on duplicate plates (MIC determination)", "setting": "[3]; [7]", "value": "+ +"}, {"measurement": "growth of bacteria on duplicate plates (MIC determination)", "setting": "[3]; [8]", "value": "+ +"}, {"measurement": "growth of bacteria on duplicate plates (MIC determination)", "setting": "[3]; [9]", "value": "+ +"}, {"measurement": "growth of bacteria (MBC determination)", "setting": "[3]; [10]", "value": "+ +"}, {"measurement": "growth of bacteria on duplicate plates (MIC determination)", "setting": "[3]; [10]", "value": "− −"}, {"measurement": "growth of bacteria (MBC determination)", "setting": "[3]; [11]", "value": "+ +"}, {"measurement": "growth of bacteria on duplicate plates (MIC determination)", "setting": "[3]; [11]", "value": "− −"}, {"measurement": "growth of bacteria (MBC determination)", "setting": "[3]; [12]", "value": "+ +"}, {"measurement": "growth of bacteria on duplicate plates (MIC determination)", "setting": "[3]; [12]", "value": "− −"}, {"measurement": "growth of bacteria (MBC determination)", "setting": "[3]; [13]", "value": "− −"}, {"measurement": "growth of bacteria on duplicate plates (MIC determination)", "setting": "[3]; [13]", "value": "− −"}, {"measurement": "growth of bacteria (MBC determination)", "setting": "[3]; [14]", "value": "− −"}, {"measurement": "growth of bacteria on duplicate plates (MIC determination)", "setting": "[3]; [14]", "value": "− −"}, {"measurement": "MBC", "setting": "[3]", "value": 0.63, "unit": "%"}, {"measurement": "MIC", "setting": "[3]", "value": 0.08, "unit": "%"}, {"measurement": "growth of bacteria on duplicate plates (MIC determination)", "setting": "[4]; [5]", "value": "+ +"}, {"measurement": "growth of bacteria on duplicate plates (MIC determination)", "setting": "[4]; [6]", "value": "+ +"}, {"measurement": "growth of bacteria on duplicate plates (MIC determination)", "setting": "[4]; [7]", "value": "+ +"}, {"measurement": "growth of bacteria on duplicate plates (MIC determination)", "setting": "[4]; [8]", "value": "+ +"}, {"measurement": "growth of bacteria on duplicate plates (MIC determination)", "setting": "[4]; [9]", "value": "+ +"}, {"measurement": "growth of bacteria on duplicate plates (MIC determination)", "setting": "[4]; [10]", "value": "+ +"}, {"measurement": "growth of bacteria on duplicate plates (MIC determination)", "setting": "[4]; [11]", "value": "+ +"}, {"measurement": "growth of bacteria on duplicate plates (MIC determination)", "setting": "[4]; [12]", "value": "+ +"}, {"measurement": "growth of bacteria (MBC determination)", "setting": "[4]; [13]", "value": "+ +"}, {"measurement": "growth of bacteria on duplicate plates (MIC determination)", "setting": "[4]; [13]", "value": "− −"}, {"measurement": "growth of bacteria (MBC determination)", "setting": "[4]; [14]", "value": "+ +"}, {"measurement": "growth of bacteria on duplicate plates (MIC determination)", "setting": "[4]; [14]", "value": "− −"}, {"measurement": "MBC", "setting": "[4]", "value": ">1.56", "unit": "%"}, {"measurement": "MIC", "setting": "[4]", "value": 0.63, "unit": "%"}]}]}
